Results taken from patent US4132790A.
Where two headings read alike, the source gives them in different places.

Legend:
[1] = tested on: Pseudomonas solanacearum; type: in vivo; conditions: scale 0 to 4; for Disease Rating: light infection in controls; for rating: heavy infestation in controls
[2] = tested on: Ascaris lumbricoides var. suum; assay: anthelmintic test in infected mice, treated feed; type: in vivo; conditions: Example 13, 0.05 percent in diet, control 2.66
Description: The feeds were utilized as diets for separate groups of mice, five mice per group. About twelve hours after initiation of the feeding, the mice were infected with Ascaris lumbricoides var. suum ova. Another group of five mice was fed the non-medicated feed to serve as a control but was similarly infected at the same time with Ascaris lumbricoides var. suum. All groups were fed their respective feed and maintained under normal laboratory conditions for a period of eight days, at which time all mice were taken off feed. On the ninth day, all mice were sacrified and the lungs examined to determine the presence, and if present, numbers, of lesions of Ascaris lumbricoides var. suum.
Another evaluation was conducted under the procedures reported in Example II, except that the rates were varied. The results were as follows:
In a further evaluation, the monoammonium salts of A16886I and A16886II were separately evaluated for the control of Ascaris lumbricoides var. suum. The evaluations were conducted in accordance with the procedure reported in Example 11 at a concentration in the diet of 0.05 percent.

[3] = solubility; type: physicochemical; conditions: monoammonium salt
[4] = tested on: Xanthomonas vesicatoria; assay: field trial, bacterial spot control on tomato plants; type: in vivo; conditions: for Percent Bacterial Spot Control First Reading: one week; for Percent Bacterial Spot Control Second Reading: two weeks
Method: (§1) A mixture of the monoammonium salt of A16886I and the monoammonium salt of A16886II was tested under field conditions for the control of Xanthomonas vesicatoria (bacterial spot) on mature bearing tomato plant. The mixture of the two salts was dispersed in water at a concentration of 100, 200, or 400 parts per million and applied to the plants at the rate of 75 gallons per acre. Application was made with a CO2 sprayer at 50 psi. Plants were sprayed twice, on successive days; after the second spray had dried, all plants were wounded by sand blasting and then within one minute the plants were inoculated with a bacterial inoculum of Xanthomonas vesicatoria. Three days later, a third spray application of the aqueous formulation of A16886 was made. Readings were made one week and two weeks after the last spray treatment. Controls consisted of groups of plants (1) sand blasted and inoculated; (2) sand blasted only; (3) untreated; and (4) treated with streptomycin (on the same three-day spraying schedule, at a concentration of 100, 200, or 400 parts per million of aqueous solution, using a rate of 75 gallons per acre), sand blasted, and inoculated. The results were as set forth in the following table, in which crop injury is reported on a scale of 0-10, with 0 = no injury and 10 = dead plants; and control of bacterial spot is reported on a percentage basis.

[5] = tested on: tomato plant; assay: field trial, crop injury; type: in vivo; conditions: scale 0 = no injury, 10 = dead plants; for Crop Injury Ratings First Reading: one week; for Crop Injury Ratings Second Reading: two weeks
Method: as §1

Compound	Disease Rating ([1]; Example 7, 10 ppm)	Disease Rating ([1]; Example 7, 100 ppm)	rating ([1]; Example 8, 200 ppm)	rating ([1]; Example 8, 400 ppm)	Average Number of Lung Lesions Per Group [2]	solubility in acetonitrile and other organic solvents [3]	solubility in lower alkanols [3]	solubility in water [3]	Percent Bacterial Spot Control First Reading ([4]; 100 parts/million)	Percent Bacterial Spot Control Second Reading ([4]; 100 parts/million)	Percent Bacterial Spot Control First Reading ([4]; 200 parts/million)	Percent Bacterial Spot Control Second Reading ([4]; 200 parts/million)	Percent Bacterial Spot Control First Reading ([4]; 400 parts/million)	Percent Bacterial Spot Control Second Reading ([4]; 400 parts/million)	Crop Injury Ratings First Reading ([5]; 100 parts/million)	Crop Injury Ratings Second Reading ([5]; 100 parts/million)	Crop Injury Ratings First Reading ([5]; 200 parts/million)	Crop Injury Ratings Second Reading ([5]; 200 parts/million)	Crop Injury Ratings First Reading ([5]; 400 parts/million)	Crop Injury Ratings Second Reading ([5]; 400 parts/million)
COC1(NC(=O)CCCC(N)C(=O)O)C(=O)N2C(C(=O)O)=C(COC(N)=O)CS[C@@H]21 (some centres unmarked) [A16886I, 7-(5-amino-5-carboxyvaleramido)-3-(carbamoyloxymethyl)-7-methoxy-3-cephem-4-carboxylic acid]	2	4	4	4	0.46	essentially insoluble	slightly soluble	very soluble												
NC(=O)OCC1=C(C(=O)O)N2C(=O)C(NC(=O)CCCC(N)C(=O)O)[C@H]2SC1 (some centres unmarked) [A16886II, 7-(5-amino-5-carboxyvaleramido)-3-(carbamoyloxymethyl)-3-cephem-4-carboxylic acid]	1	4			0.20	essentially insoluble	slightly soluble	very soluble												
[H]/N=C(/N)N[C@H]1[C@H](O)[C@@H](O)[C@H](O[C@@H]2O[C@@H](C)[C@](O)(C=O)[C@H]2O[C@@H]2O[C@@H](CO)[C@H](O)[C@@H](O)[C@@H]2NC)[C@@H](N/C(N)=N\[H])[C@@H]1O [Streptomycin]									83%	57%	81%	37%	83%	59%	0	0	0	0	0	0
